# Reference: US20210212998A1, “Combinations of Tie-2 Activators and Prostaglandins and Uses Thereof” (Aerpio Pharmaceuticals, Inc., priority 2020, published 2021)
# Read-outs that look alike come from different tables or passages of the source.
# Key:
# [1] = test system: human subjects with OHT/POAG; experiment: Phase 1b trial: conjunctival hyperemia, safety and tolerability; type: in vivo
# Protocol: A randomized, double-masked Phase 1b trial was designed to assess safety, tolerability, and efficacy of a Tie-2 activator (Compound 1) as an adjunctive therapy to prostaglandins for treatment of ocular hypertension (OHT) or primary open angle glaucoma (POAG). The study assessed the effects of increasing concentrations of Compound 1 dosed topically as eye drops (5 mg/mL QD, 15 mg/mL QD, 40 mg/mL QD, and 40 mg/mL BID) in 4 sequential cohorts of 12 subjects, randomized 3:1 to receive Compound 1 or placebo, for 7 days. Conjunctival hyperemia and IOP were assessed at 0 (pre-dose), 2 hours, 4 hours, and 8 hours post-dose on Day −1 (baseline), Day 1 (first day of Compound 1 dosing), and Day 7 (last day of dosing).
# In this study, 36 human subjects with OHT/POAG and baseline IOP measurements between 17 and 27 mmHg (inclusive) undergoing once-daily prostaglandin therapy were recruited. Subjects were randomized 3:1 to once-daily, 40 mg/mL Compound 1 (27 subjects), or placebo (9 subjects) in the morning (AM) for 7 days while continuing once-daily prostaglandin therapy in the evening (PM). Compound 1 (40 mg/mL) was a sodium salt formulated in 15% HPβCD and 1% mannitol. The Compound 1 ophthalmic solution was adjusted to a pH of 6.5-7.5 with 1N hydrochloric acid and/or IN sodium hydroxide prior to sterile filtration. Placebo was the same solution as the vehicle for the Compound 1 ophthalmic solution. Each dose of study medication (Compound 1 or placebo) was administered as one drop (30 μL) of dosing solution per eye in each subject. Compound 1 was administered to each eye (except on Day 1 and 2 in Cohort 1 in which only the right eye received Compound 1) by the topical ocular route using a dropper bottle to deliver eye drops. Compound 1 was administered for 7 days as a single morning dose daily. […]
# IOP was measured pre-dose (0 hr), 2 hrs, 4 hrs, and 8 hrs post-dose on Day −1, Day 1, and Day 7. […] Visual field testing, conjunctival hyperemia and IOP were also assessed. IOP was assessed by Goldmann applanation tonometry in both eyes at screening, baseline, and during treatment as indicated. […]
# [2] = cited from earlier work
# [3] = test system: patients with mean baseline intraocular pressure of 24-25 mmHg; conditions: cited from earlier work
structure (smiles),measurement,setting,value
COC(=O)N[C@@H](Cc1ccccc1)C(=O)N[C@@H](Cc1ccc(NS(=O)(=O)O)cc1)c1csc(-c2cccs2)n1 [Compound 1],change in hyperemia over baseline,[1]; 2 hours post-dose,small increase
same,tolerability of topical ocular administration,[1]; 7 day study,well-tolerated
same,time by which hyperemia returned to baseline levels,[1]; post-dose,≤ 8 h
"CC(C)OC(=O)CCC/C=C\C[C@@H]1[C@@H](CC[C@@H](O)CCc2ccccc2)[C@H](O)C[C@@H]1O [Latanoprost, latanoprost]",distribution volume,[2]; humans,0.16 ± 0.02 L/kg
same,administered dose recovered in the urine,[2]; intravenous dosing,~98%
same,administered dose recovered in the urine,[2]; topical dosing,about 88%
same,reductions in IOP,"[3]; baseline IOP 24-25 mmHg, treated for 6 months, multi-center randomized controlled trials",6-8 mmHg
same,start of reduction of the intraocular pressure after administration,"[3]; human, in vivo",3 to 4 h
same,time at which the maximum effect is reached,"[3]; human, in vivo",8 to 12 h
O=C(O)CCC/C=C\C[C@@H]1[C@@H](CC[C@@H](O)CCc2ccccc2)[C@H](O)C[C@@H]1O [acid of latanoprost],"t1/2, elimination from human plasma",[2]; after both intravenous and topical administration,17 min
same,Systemic clearance,[2]; human,approximately 7 mL/min/kg
